Results as given in ChEMBL document CHEMBL5149996, “Structure-Based Optimization and Discovery of M3258, a Specific Inhibitor of the Immunoproteasome Subunit LMP7 (β5i)” (J Med Chem, 2021).

Columns and labels:
[1] = target: T1, Proteasome Macropain subunit MB1 (Homo sapiens, UniProt P28074); experiment: Inhibition of human 20S proteasome beta5 subunit using Suc-LLVY-AMC as substrate preincubated for 2 hrs followed by substrate addition and measured after 1 hr by fluorescence intensity assay
T1 sequence (P28074 whole entry): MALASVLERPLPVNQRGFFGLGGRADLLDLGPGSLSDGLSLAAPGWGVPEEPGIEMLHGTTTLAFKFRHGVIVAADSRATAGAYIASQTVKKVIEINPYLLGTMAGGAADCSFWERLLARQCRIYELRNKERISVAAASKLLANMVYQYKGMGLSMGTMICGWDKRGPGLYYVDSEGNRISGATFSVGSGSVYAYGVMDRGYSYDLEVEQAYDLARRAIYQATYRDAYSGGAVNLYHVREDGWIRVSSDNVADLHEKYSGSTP

[2] = target: T2, Proteasome subunit beta type-10 (Homo sapiens, UniProt P40306); experiment: Inhibition of human 20S immunoproteasome beta-2i subunit using Ac-RLR-AMC as substrate preincubated for 2 hrs followed by substrate addition and measured after 1 hr by fluorescence intensity assay
T2 sequence (P40306 whole entry): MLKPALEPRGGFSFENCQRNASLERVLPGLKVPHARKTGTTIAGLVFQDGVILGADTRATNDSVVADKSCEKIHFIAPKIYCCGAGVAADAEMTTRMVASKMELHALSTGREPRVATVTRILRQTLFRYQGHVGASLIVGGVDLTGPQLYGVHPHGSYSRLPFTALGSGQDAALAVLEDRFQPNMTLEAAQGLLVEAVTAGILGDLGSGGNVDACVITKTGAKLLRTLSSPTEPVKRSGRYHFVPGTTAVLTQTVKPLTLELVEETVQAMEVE

[3] = target: T3, Proteasome subunit beta type-8 (Homo sapiens, UniProt P28062); experiment: Inhibition of human 20S immunoproteasome beta-5i subunit using Suc-LLVY-AMC as substrate preincubated for 2 hrs followed by substrate addition and measured after 1 hr by fluorescence intensity assay
T3 sequence (P28062 whole entry): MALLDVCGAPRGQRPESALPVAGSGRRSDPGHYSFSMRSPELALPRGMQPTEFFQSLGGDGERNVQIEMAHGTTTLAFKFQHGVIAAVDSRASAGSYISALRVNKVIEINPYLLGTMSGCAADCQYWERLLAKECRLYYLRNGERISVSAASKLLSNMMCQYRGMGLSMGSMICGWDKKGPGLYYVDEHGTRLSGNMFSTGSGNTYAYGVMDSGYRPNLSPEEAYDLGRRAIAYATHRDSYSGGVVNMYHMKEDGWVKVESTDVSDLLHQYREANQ

[4] = target: T4, Proteasome subunit beta type-6 (Homo sapiens, UniProt P28072); experiment: Inhibition of human 20S […] beta1 subunit using Ac-nLPnLD-AMC as substrate preincubated for 2 hrs followed by substrate addition and measured after 1 hr by fluorescence intensity assay
T4 sequence (P28072 whole entry): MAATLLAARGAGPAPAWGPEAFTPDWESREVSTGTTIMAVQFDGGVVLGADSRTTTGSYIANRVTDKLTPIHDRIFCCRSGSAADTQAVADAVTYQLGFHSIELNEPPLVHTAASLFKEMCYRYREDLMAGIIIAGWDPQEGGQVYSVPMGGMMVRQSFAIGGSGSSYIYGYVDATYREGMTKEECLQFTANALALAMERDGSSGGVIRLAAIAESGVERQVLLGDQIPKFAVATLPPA

Homo sapiens [5] = species on record: Homo sapiens; experiment: Selectivity ratio of IC50 for inhibition of human 20S proteasome beta5 subunit to IC50 for inhibition of human 20S immunoproteasome beta-5i subunit
[6] = target: T5, Proteasome subunit beta type-9 (Homo sapiens, UniProt P28065); experiment: Inhibition of human 20S immunoproteasome beta-1i subunit using (Ac-PAL)2R110 as substrate preincubated for 2 hrs followed by substrate addition and measured after 1 hr by fluorescence intensity assay
T5 sequence (P28065 whole entry): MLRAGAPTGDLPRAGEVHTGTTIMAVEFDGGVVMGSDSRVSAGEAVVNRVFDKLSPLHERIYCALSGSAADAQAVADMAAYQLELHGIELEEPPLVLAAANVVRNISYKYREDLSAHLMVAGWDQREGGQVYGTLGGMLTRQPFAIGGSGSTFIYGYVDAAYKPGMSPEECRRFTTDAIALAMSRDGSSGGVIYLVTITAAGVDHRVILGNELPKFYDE

[7] = target: T6, Proteasome subunit beta type-7 (Homo sapiens, UniProt Q99436); experiment: Inhibition of human 20S proteasome beta2 subunit using Ac-RLR-AMC as substrate preincubated for 2 hrs followed by substrate addition and measured after 1 hr by fluorescence intensity assay
T6 sequence (Q99436 whole entry): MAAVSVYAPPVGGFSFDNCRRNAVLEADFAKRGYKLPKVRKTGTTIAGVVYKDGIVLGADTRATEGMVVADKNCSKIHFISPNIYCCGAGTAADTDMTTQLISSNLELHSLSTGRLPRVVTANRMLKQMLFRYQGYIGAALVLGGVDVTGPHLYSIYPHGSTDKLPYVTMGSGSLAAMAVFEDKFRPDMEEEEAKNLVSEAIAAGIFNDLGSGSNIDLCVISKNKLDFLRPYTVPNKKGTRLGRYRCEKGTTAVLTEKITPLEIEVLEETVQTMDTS

Homo sapiens [8] = species on record: Homo sapiens; experiment: Selectivity ratio of IC50 for inhibition of 20S proteasome beta5 subunit in human A549 cells to IC50 for inhibition of 20S immunoproteasome beta-5i subunit in human PBMC; type: cell-based
[9] = target: T1, Proteasome Macropain subunit MB1; experiment: Inhibition of 20S proteasome beta5 subunit in human A549 cells using Suc-LLVY-luciferin substrate preincubated for 2 hrs followed by substrate addition and measured after 30 mins by luminometric analysis; type: cell-based
[10] = Volume of distribution at steady state in iv dosed mouse; type: ADME, organism-based; conditions: in vivo
[11] = Distribution coefficient, log D of the compound; type: physicochemical; conditions: octanol/water
[12] = Clearance in iv dosed mouse; type: ADME, organism-based; conditions: in vivo
[13] = Oral bioavailability in mouse at 0.5 mg/kg; type: ADME, organism-based; conditions: in vivo
[14] = Kinetic solubility of the compound; type: physicochemical; conditions: read-out: Kinetic_solubility
[15] = Lipophilicity, log P of the compound; type: physicochemical; conditions: octanol/water
[16] = target: T3, Proteasome subunit beta type-8; experiment: Inhibition of 20S immunoproteasome beta-5i subunit in human PBMC using Ac-ANW-luciferin substrate preincubated for 2 hrs followed by substrate addition and measured after 30 mins by luminometric analysis; type: cell-based
[17] = Half life in iv dosed mouse; type: ADME, organism-based; conditions: in vivo
Hepatocyte [18] = experiment: Cytotoxicity against human primary hepatocytes assessed as depletion of ATP content up to 500 uM incubated for 48 to 72 hrs by CellTiter-Glo luminescent assay; type: toxicity, cell-based; conditions: time 48-72 hrs
HepG2 = experiment: Cytotoxicity against human HepG2 cells assessed as depletion of ATP content up to 500 uM incubated for 48 to 72 hrs by CellTiter-Glo luminescent assay; type: toxicity, cell-based; conditions: hepg2, 500 µM, time 48-72 hrs
Hepatocyte [19] = experiment: Cytotoxicity against Wistar Han rat hepatocytes assessed as depletion of ATP content up to 500 uM incubated for 48 to 72 hrs by CellTiter-Glo luminescent assay; type: toxicity, cell-based; conditions: time 48-72 hrs
[20] = Intrinsic clearance in human liver microsomes measured per mg protein; type: ADME, Microsome
[21] = Intrinsic clearance in mouse liver microsomes measured per mg protein; type: ADME, Microsome; conditions: read-out: CLH
[22] = Clearance in human hepatocytes measured per million of cells; type: ADME, cell-based, Hepatocyte; conditions: read-out: CLH
[23] = Clearance in mouse hepatocytes measured per million of cells; type: ADME, cell-based, Hepatocyte; conditions: read-out: CLH

SMILES	IC50 [1] [nM]	IC50 [2] [nM]	IC50 [3] [nM]	IC50 [4] [nM]	Ratio IC50 (Homo sapiens [5])	IC50 [6] [nM]	IC50 [7] [nM]	Ratio IC50 (Homo sapiens [8])	IC50 [9] [nM]	logD [11]	bioavailability [13] [%]	solubility kinetic [14] [µM]	logP [15]	IC50 [16] [nM]	CLH [20] [µL/min/mg]	microsomal CLint [21] [µL/min/mg]	further results
CCc1cccc(C[C@H](NC(=O)[C@H](Cc2ccccc2)NC(=O)c2cnccn2)B(O)O)c1	41	4000	1.7	8500	24	11	> 30000	–	–	–	–	–	–	–	–	–	–
O=C(Cc1ccccc1)N[C@@H](Cc1coc2ccccc12)B(O)O	900	–	2.1	–	419	–	–	41	573	1	37	> 200	3.5	14	–	–	Vdss ([10]; iv): 2.25 L/kg; CL ([12]; iv): 3 mL/min/kg; t1/2 ([17]; iv): 22.2 min
CC(C)C[C@H](NC(=O)[C@H](Cc1ccccc1)NC(=O)c1cnccn1)B(O)O [BORTEZOMIB]	–	–	–	–	–	–	–	–	–	–	–	–	–	–	–	–	Activity (Hepatocyte [18]): Toxic; Activity (HepG2): Toxic; Activity (Hepatocyte [19]): Toxic
N#Cc1ccccc1CC(=O)N[C@@H](C[C@@H]1COc2ccccc21)B(O)O	2400	–	3.1	–	758	–	–	126	2520	1.3	13	> 200	1.75	20	< 10	37	Vd ([10]; read-out: Vdss): 1.88 L/kg; clearance [12]: 32.8 mL/min/kg; half-life [17]: 42.6 min
O=C(N[C@@H](Cc1coc2ccccc12)B(O)O)[C@H]1C[C@@H]2CC[C@H]1O2	6500	–	15	–	444	–	–	124	2440	–	–	–	2.25	19.6	< 10	16	hepatocyte CLint [22]: 6.6 µL/min/1e6 cells; hepatocyte CLint [23]: 15.9 µL/min/1e6 cells
CC(C)C[C@H](NC(=O)CNC(=O)c1cc(Cl)ccc1Cl)B(O)O	–	4870	2.9	64	–	2.7	> 30000	–	–	–	–	–	–	–	–	–	–
